Reference: the NIST ThermoML archive (doi:10.1016/j.jct.2015.12.029)
± gives the expanded uncertainty stated by the source.

Experiments:
[1] = 100 kPa, Liquid, Vibrating tube method
[2] = mn = molality of the nth substance listed, in mol/kg; settings: 100 kPa, Liquid, Vibrating tube method, m2 = 0

Row | mass density ([1]; 283.15 K) [kg/m3] | mass density ([1]; 288.15 K) [kg/m3] | mass density ([1]; 293.15 K) [kg/m3] | mass density ([1]; 298.15 K) [kg/m3] | mass density ([1]; 303.15 K) [kg/m3] | mass density ([1]; 308.15 K) [kg/m3] | mass density ([1]; 313.15 K) [kg/m3] | mass density ([1]; 318.15 K) [kg/m3] | mass density ([2]; 283.15 K) [kg/m3] | mass density ([2]; 288.15 K) [kg/m3] | mass density ([2]; 293.15 K) [kg/m3] | mass density ([2]; 298.15 K) [kg/m3] | mass density ([2]; 303.15 K) [kg/m3] | mass density ([2]; 308.15 K) [kg/m3] | mass density ([2]; 313.15 K) [kg/m3] | mass density ([2]; 318.15 K) [kg/m3] | Structure (SMILES)
1 | 817.103 ± 0.22 | 813.337 ± 0.22 | 809.548 ± 0.22 | 805.738 ± 0.22 | 801.901 ± 0.22 | 798.032 ± 0.22 | 794.128 ± 0.23 | 790.181 ± 0.23 | – | – | – | – | – | – | – | – | CCCCO [butan-1-ol]
2 | – | – | – | – | – | – | – | – | 817.103 ± 0.23 | 813.337 ± 0.23 | 809.548 ± 0.23 | 805.738 ± 0.23 | 801.901 ± 0.23 | 798.032 ± 0.23 | 794.128 ± 0.23 | 790.181 ± 0.23 | CCCCO [butan-1-ol] + CCCCn1cc[n+](C)c1.F[B-](F)(F)F
3 | – | – | – | – | – | – | – | – | 817.103 ± 0.23 | 813.337 ± 0.23 | 809.548 ± 0.23 | 805.738 ± 0.23 | 801.901 ± 0.23 | 798.032 ± 0.23 | 794.128 ± 0.23 | 790.181 ± 0.23 | CCCCO [butan-1-ol] + CCn1cc[n+](C)c1.F[B-](F)(F)F
